From patent publication US20060074049A1, “Use of heparinoids for treatment and prevention of dementia” (priority 2004, published 2006)

Tests used:
[1] = test system: ERK; test: ERK phosphorylation in NPC by flow cytometry; type: cell-based, human
Method: Signaling: Isolated NPC were incubated with coat proteins for 10 minutes, placed on ice, fixed, permeabilized with saponin, and stained with fluorescein isothiocyanate-(FITC-) conjugated phosphospecific monoclonal antibodies to ERK (Santa Cruz Biotechnology, Santa Cruz, Calif.). Cells were then analyzed by flow cytometry. Activity of PP2A was inhibited by incubation with okadaic acid (Calbiochem, San Diego, Calif.) at 2.5 μM for 1 hour prior to the addition of coat proteins. Experiments were performed at least twice, and determinations were performed in triplicate.
Proliferation of NPC is increased by signals that increase ERK phosphorylation (Learish et al. (2000) Develop. Brain Res. 122:97-109). […] NPC were incubated with a panel of HIV coat proteins and assayed to determine the fraction of cells with phosphorylated ERK. The CM235 and IIIb coat proteins inhibited ERK phosphorylation by 34% and 77% respectively (p<0.05 for both; FIGS. 2A and 2B). […] Thus, HIV coat proteins are able to activate a cellular phosphatase by signaling through chemokine receptors and reduce ERK phosphorylation, leading to reduced NPC proliferation.

[2] = test system: human neurospheres (NPC); test: Block of IIIb coat protein effect on NPC proliferation by recombinant apolipoproteins; type: cell-based; conditions: 20 nM recombinant apolipoprotein
Method: FIG. 6 is a graph showing the number of BrdU labeled NPC in samples treated with recombinant HIV gp120 from the IIIb strain, which was pre-incubated with or without recombinant ApoE3 and ApoE4.
A risk factor for the development of HIV dementia is homozygosity for the apolipoprotein E4 genotype (Corder et al. (1998) Nat. Med. 4:1182-1184). In Herpes simplex virus infection, it has been speculated that apo E proteins compete with HSV for binding to HS, and that apo E4 cannot compete as efficiently as apo E3 (Itzhaki et al. (1998) Nat. Med. 4:1344). To determine whether apolipoproteins might compete with HIV coat proteins for binding to cell surface HS on NPC, human neurospheres were incubated with the IIIb coat protein, and the ability of recombinant apolipoproteins to block the inhibitory effect of the coat protein on NPC proliferation was tested. […] Thus, apolipoproteins compete with HIV coat proteins for cell surface binding.

[3] = test system: human NPC; test: Plating assay: NPC colony formation / quiescence; type: cell-based
Method: Cells and Materials: Normal human NPC were obtained from Clonetics Corp (San Diego, Calif.), and grown in neural progenitor maintenance medium (Clonetics) with human recombinant basic fibroblast growth factor, epidermal growth factor, neural survival factors and antibiotics. These cells were derived as described previously (Svendsen (1998) J. Neurosci. Meth. 85:141-152).
Plating Assay: On day 0, HIV coat proteins at a concentration of 800 pM, or CSF at a concentration of 2% was added to cultures of NPC. Each protein or CSF sample was tested in triplicate. Cultures were incubated for seven days, and then cells were plated onto 24 well polyethylene-imine coated plates. The number of cell colonies having more than 20 cells with typical neuronal morphology was counted for each well after 7 days in culture. Determinations of colony inhibition for all proteins and CSF samples were done on each of three different lots of NPC. Each lot was passaged 1-3 times before testing, with no differences seen between this number of passages.
The ability of HIV coat proteins to induce quiescence in human NPC was tested using NPC in the form of neurospheres. Typically, neurospheres with quiescent cells fail to attach and differentiate, while neurospheres containing proliferating cells will attach and differentiate into neurons and astrocytes. To determine whether only those coat proteins that signal through either the CXCR4 receptor or the […] receptor would induce quiescence of NPC, purified recombinant coat proteins from several different strains of HIV were tested. These included the R5 strain CM235, the X4 strain IIIb, and the clade E/A recombinant R5 strain 93TH975 (Gao et al. (1996) J. Virol. 70:1651-1667). […] The number of colonies containing more than 20 cells with typical neuronal morphology was counted after 7 days in culture. […] None of the coat proteins induced cell death in NPC, as determined by trypan blue staining (>95% viability in all coat-protein treated cultures). […]

[4] = test system: human NPC; test: BrdU incorporation into NPC neurospheres by flow cytometry; type: cell-based
Excerpt: FIG. 1 is a graph showing the number of NPC colonies displaying outgrowth of cells with neuronal morphology after treatment with coat proteins from the HIV strains 93TH975, CM235 and IIIb. The mean+/−standard error is shown. PTX=pertussis toxin, Anti V3=monoclonal antibody to the V3 loop region of gp120. FIG. 1B is a series of graphs showing the level of bromodeoxyuridine (BrdU) incorporation into NPC neurospheres treated with coat proteins from the HIV strains 93TH975, CM235 and IIIb. Shaded area=control cells, solid line=treated cells.
To quantitate the ability of the coat proteins to cause cells to become quiescent, the number of attached, differentiated colonies was counted. […] In contrast, the 93TH975 coat protein had no effect. In order to confirm that cell proliferation was indeed inhibited by the coat proteins, cultures of NPC were labeled with BrdU, and BrdU incorporation was measured by flow cytometry.

[5] = test system: p21 and p27; test: p21 and p27 expression in NPC by immunohistochemistry; type: cell-based, human
Method: For p21 and p27 detection, NPC were grown with recombinant coat proteins for 24 hours. Cells were fixed and monoclonal antibodies to p21 or p27 (Pharmingen) were added. A secondary antibody conjugated to Cy3 was used for detection.
NCP were incubated with 800 pM recombinant coat proteins, and expression of p21 and p27 was analyzed using immunohistochemistry.

[6] = test system: NPC in human hippocampal slices; test: Hippocampal slice cultures, BrdU positive NPC; type: cell-based; conditions: coat protein 1 nM; p<0.001
Method: Hippocampal slice cultures: Discarded hippocampal tissue was obtained from patients undergoing corrective surgery for seizures as previously described (Roy et al. (2000) Nat. Med. 6:271-277; and Pincus et al. (1998) Neurosurg. 42:858-868). Tissue was obtained within 1 hour of removal and cultured as described (Stoppini et al. (1991) J. Neurosci, Meth. 37:173-182). Briefly, tissue was sliced to 200 μm thickness using a Brendel-Vitron tissue slicer (Vitron, Inc., Tucson, Ariz.). Slices were placed in a Transwell insert (Costar, Corning, N.Y.) and cultured in neural progenitor maintenance medium (NPMM) with or without chemokines (500 ng/ml), HIV coat proteins (1 nM) or CSF (2%) added on day 0. Each sample was tested in triplicate. The entire experiment was performed at least twice with identical results. Slices were labeled with BrdU on day 5 of culture, and harvested for immunohistochemistry on day 7 by freezing slices in OCT. Five-micron sections were made, and BrdU incorporation was detected using a BrdU in situ kit (Pharmingen, San Diego, Calif.). For dual staining of BrdU and Musashil, a polyclonal antibody to Musashil (Chemicon International, Temecula, Calif.) was used at a dilution of 1:10. Apoptotic cells were detected using a TUNEL assay (Oncogene, Boston, Mass.). […]

**Q.** How did the “effect on inhibition of ERK phosphorylation induced by CM235 and IIIb coat proteins” value ([1]; 2.5 μM for 1 hour prior to coat proteins) turn out when C=C1[C@@H](O)[C@@H]2O[C@]3(CC[C@H](/C=C/[C@@H](C)[C@@H]4CC(C)=C[C@@]5(O[C@H](C[C@@](C)(O)C(=O)O)CC[C@H]5O)O4)O3)CC[C@H]2O[C@@H]1[C@@H](O)C[C@H](C)[C@H]1O[C@@]2(CCCCO2)CC[C@H]1C [okadaic acid, reference compound] was run?
**A.** blocked the inhibition of ERK phosphorylation

**Q.** For apo E3: recombinant apolipoprotein E3, which “block of IIIb coat protein inhibition of NPC proliferation” value [2] is on record?
**A.** prevented the IIIb coat protein from inhibiting NPC proliferation

**Q.** With “IIIb: purified recombinant HIV coat protein (gp120) of the X4 strain IIIb” as the compound, how does the “induction of quiescence / effect on attached differentiated NPC colonies (in words)” value ([3]; coat protein 800 pM for 7 days) read?
**A.** caused NPC to enter a quiescent state

**Q.** And the “reduction of the number of differentiated NPC colonies” value ([3]; coat protein 800 pM for 7 days, colonies counted after 7 days on coated plates, p<0.001)?
**A.** 74%

**Q.** What about the “BrdU incorporation into NPC, tested 7 days after addition of coat proteins” value ([4]; 7 days after addition) of the same compound?
**A.** incorporation similar to controls

**Q.** And the “BrdU incorporation into NPC compared with controls” value ([4]; coat protein treated NPC)?
**A.** less BrdU incorporation

**Q.** And the “expression of p21 and p27 in NPC” value ([5]; 800 pM recombinant coat protein)?
**A.** induced expression of p21 and p27

**Q.** What about the “reduction in fraction of NPC with phosphorylated ERK” value ([1]; NPC incubated with coat protein 10 minutes, p<0.05 for CM235 and IIIb, 93TH975 non-significant) of the same compound?
**A.** 77%

**Q.** And the “reduction of proliferation of NPC (BrdU positive cells) in hippocampal slices” value [6]?
**A.** 70%

**Q.** With apo E4: recombinant apolipoprotein E4 as the compound, how does the “block of IIIb coat protein inhibition of NPC proliferation” value [2] read?
**A.** did not

**Q.** How did the “effect on the inhibitory effects of CM235 and IIIb coat proteins on NPC” value ([3]; added to NPC cultures in addition to coat proteins) turn out when pertussis toxin [reference compound] was run?
**A.** eliminated

**Q.** For c1cc(CN2CCCNCCNCCCNCC2)ccc1CN1CCCNCCNCCCNCC1 [AMD3100, reference compound], which “effect on induction of p21 and p27 by the IIIb coat protein” value ([5]; with IIIb coat protein) is on record?
**A.** blocked
